{
  "source": "patent US20090257999A1",
  "about": "“Method of preventing contrast-induced nephropathy” (Inotek Pharmaceuticals Corporation, priority 2007, published 2009)",
  "type_in_all_cases": "in vivo, rat",
  "key": {"diabetic rats [1]": {"test_system": "diabetic rats", "assay": "CIN animal model, Example 1: fractional excretion of Na+ (FENa, tubular function)", "conditions": "at 96 hours", "description": "(§1) Male Wistar rats (150-200 g; Harlan Nossanr) were housed in a controlled environment and provided with standard rodent chow and water.\nAfter 12 hours of fasting, the animals received a single 60 mg/kg intravenous (i.v.) injection of streptozotocin (Sigma, St. Louis, Mo.) in 10 mM sodium citrate buffer, pH 4.5 (see figure showing CIN model). Control non-diabetic animals were fasted and received citrate buffer alone. After 24 hours, animals with blood glucose levels greater than 250 mg/dl were considered diabetic. All experiments were performed 10 days following the induction of diabetes. The diabetic state was evaluated daily by determination of the blood glucose levels. […]\nAt the indicated time point blood samples were collected via the lateral tail vein into S1/3 tubes containing serum gel. […] All plasma samples were analyzed for biochemical parameters within 24 hours of collection. Plasma concentrations of urea and creatinine were measured as indicators of impaired glomerular function. Urine samples were collected at 96 hour after contrast agent administration and the volume of urine produced was recorded. Urine concentrations of Na^+ were measured and were used in conjunction with plasma Na^+ concentrations to calculate fractional excretion of Na^+ (FENa) using standard formulae, which was used as an indicator of tubular function. […]"}, "diabetic rats [2]": {"test_system": "diabetic rats", "assay": "CIN animal model, Example 1: plasma urea and creatinine (glomerular dysfunction)", "description": "as §1\nAfter 12 hours of fasting, the animals received a single 60 mg/kg intravenous (i.v.) injection of streptozotocin (Sigma, St. Louis, Mo.) in 10 mM sodium citrate buffer, pH 4.5 (see figure showing CIN model). Control non-diabetic animals were fasted and received citrate buffer alone. After 24 hours, animals with blood glucose levels greater than 250 mg/dl were considered diabetic. All experiments were performed 10 days following the induction of diabetes. The diabetic state was evaluated daily by determination of the blood glucose levels. Upon the induction of the diabetic state the animals were presenting with a major risk factor pre-disposing the animals to CIN after the administration of contrast media.\nTen days following the induction of diabetes the rats were anesthetized with 90 mg/kg ketamine i.m. and 10 mg/kg xylazine i.m. and were treated with the contrast agent iomeprol (10 mL/kg injected via the lateral tail vein) or with 0.9% normal saline. The contrast agent used was the low osmolar non-ionic monomer iomeprol (Iomeron, 400 mgI mL-1; Bracco SpA, Milan, Italy) with an osmolality of 726±34 mosmol/kg H2O. Upon completion of surgical procedures, the animals were randomly allocated to eleven different experimental groups as tabulated below:\n(§2) Experimental model for assessing the effects of Metalloporphyrin A on CIN: Diabetic (n=8) for group #'s 1-9 or wild-type rats (n=10) for group #'s 10 and 11 were treated with drug 60 min prior to contrast agent administration. At the “0” time point, Iomeprol was administered with ensuing drug intervention dosing every 12 hours for Metalloporphyrin A from 24-84 hours or every 24 hours for NAC from 24-72 hours. At the 96 hour time point, kidneys were harvested for histopathology, MPO and MDA measurements. From 0-96 hours, plasma samples from all animals per group were screened for urea, creatinine, fractional excretion of Na^+ and NGAL.\nAt the indicated time point blood samples were collected via the lateral tail vein into S1/3 tubes containing serum gel. The samples were centrifuged (6000 r.p.m. for 3 min) to separate plasma. All plasma samples were analyzed for biochemical parameters within 24 hours of collection. Plasma concentrations of urea and creatinine were measured as indicators of impaired glomerular function. Urine samples were collected at 96 hour after contrast agent administration and the volume of urine produced was recorded. Urine concentrations of Na^+ were measured and were used in conjunction with plasma Na^+ concentrations to calculate fractional excretion of Na^+ (FENa) using standard formulae, which was used as an indicator of tubular function."}, "[3]": {"test_system": "malondialdehyde (MDA) in kidneys", "assay": "Kidney malondialdehyde (MDA) levels, Example 1", "conditions": "at 96 hours", "description": "as §2\nLevels of malondialdehyde (MDA) in kidneys were determined as an indicator of lipid peroxidation following a protocol described previously (Davenport et. al. Clin. Transplant. 9 (3 Pt 1):171-51995).\nKidney tissue was weighed and homogenized in a 1.15% (wt/vol) KCl solution. A […] aliquot of homogenate was then removed and added to a reaction mixture containing […] 8.1% (wt/vol) lauryl sulfate, 1.5 mL 20% (vol/vol) acetic acid (pH 3.5), 1.5 mL 0.8% (wt/vol) thiobarbituric acid, and 700 mL distilled water. Samples were then boiled for one hour at 95° C. and centrifuged at 3000 g for 10 minutes. The absorbance of the supernatant was measured spectrophotometrically at […]. MDA levels were expressed as μM/100 mg wet tissue."}, "[4]": {"test_system": "ICAM-1, Nitrotyrosine and PAR expression", "assay": "Immunohistochemical localization of ICAM-1, nitrotyrosine and poly(ADP-ribose) in kidney, Example 1", "conditions": "diabetic rats + Iomeprol; metalloporphyrin A 1 mg/kg 60 min prior to Iomeprol, or NAC 10 mg/kg", "description": "as §2\nRat kidneys fixed in 10% (wt/vol) neutral buffered paraformaldehyde and […] sections were prepared from paraffin-embedded tissues. After deparaffination, endogenous peroxidase was quenched using 0.3% (vol/vol) H2O2 in 60% methanol for 30 minutes. The sections were permeabilized using 0.1% (wt/vol) Triton X-100 in phosphate-buffered saline (PBS; 0.01 mol/L, pH 7.4) for 20 minutes. Nonspecific adsorption was minimized by incubating sections in 2% (vol/vol) normal goat serum in PBS for 20 minutes. Endogenous avidin- and biotin-binding sites were blocked by sequential incubation for 15 minutes with avidin (DBA, Milan, Italy) and biotin (DBA, Milan, Italy), respectively. The sections were then incubated overnight with primary antinitrotyrosine antibody (1:1000), anti-PAR antibody (1:500) and anti-ICAM-1 antibody (1:500). Separate sections were also incubated with control solutions consisting of PBS alone or a 1:500 dilution of nonspecific purified rabbit IgG (DBA). Specific labeling was detected using a biotin-conjugated goat antirabbit IgG (DBA) and avidin-biotin peroxidase (DBA). Samples were then viewed under a light microscope."}, "[5]": {"conditions": "diabetic rats + i.v. Iomeprol, Metalloporphyrin A 30-1000 μg/kg or NAC 10 mg/kg i.p."}, "[6]": {"conditions": "diabetic rats + i.v. saline (no contrast agent), Metalloporphyrin A 1000 μg/kg or NAC 10 mg/kg i.p."}, "[7]": {"conditions": "diabetic rats + i.v. Iomeprol 10 ml/kg, Metalloporphyrin A 1000 μg/kg or NAC 10 mg/kg i.p., at 48, 72 and 96 hours"}, "[8]": {"conditions": "diabetic rats + i.v. saline (no contrast agent), NAC 10 mg/kg i.p., at 72 and 96 hours"}},
  "data": [
    {"smiles": "CC(=O)N[C@@H](CS)C(=O)O", "note": "[NAC, N-acetylcysteine]", "values": [
      {"measurement": "fractional excretion of sodium (FENa)", "setting": "diabetic rats [1]; [5]", "result": "significant reductions"},
      {"measurement": "fractional excretion of sodium (FENa)", "setting": "diabetic rats [1]; [6]", "result": "significantly reduced the increase"},
      {"measurement": "plasma creatinine concentration", "setting": "diabetic rats [2]; [7]", "result": "reductions"},
      {"measurement": "plasma urea concentration", "setting": "diabetic rats [2]; [7]", "result": "reductions"},
      {"measurement": "plasma creatinine concentration", "setting": "diabetic rats [2]; [8]", "result": "significantly reduced the increase"},
      {"measurement": "plasma urea concentration", "setting": "diabetic rats [2]; [8]", "result": "significantly reduced the increase"},
      {"measurement": "MDA levels in the kidney", "setting": "[3]; [5]", "result": "significant reductions"},
      {"measurement": "MDA levels in the kidney", "setting": "[3]; [6]", "result": "significantly reduced the increase"},
      {"measurement": "ICAM-1 staining/expression in kidney medulla", "setting": "[4]", "result": "afforded protection"},
      {"measurement": "Nitrotyrosine staining/expression in kidney medulla", "setting": "[4]", "result": "afforded protection"},
      {"measurement": "PAR staining/expression in kidney medulla", "setting": "[4]", "result": "afforded protection"}
    ]}
  ]
}
